# Test results from patent publication US20100004267A1, “LIQUID PREPARATION” (ASUBIO PHARMA CO., LTD., priority 2006, published 2010).
# Structures can show the parent of a compound that is named as a salt.
# Experiments:
# [1] = Likelihood of formation of insoluble aggregate with free base among counter ions; format: physicochemical; details: estimated from the inventors' examinations
# [2] = Examination of antioxidant: storage at 60° C. (Test example 3); format: physicochemical
# Procedure: In this examination, hydrochloride of the compound of formula (I) was used instead of SUN N8075. Approximately 400 mg of the hydrochloride of compound of formula (I) were precisely weighed and water was added to make the volume precisely 200 mL, which was provided as an original drug aqueous solution.
# Approximately 400 mg of each antioxidant shown in Table 3 below were precisely weighed and dissolved by adding 20 mL of water. As to butylhydroxy anisole, 10.7 mg was precisely weighed and dissolved in 100 mL of water.
# 15 mL of each antioxidant solution was mixed with 15 mL of solution of drug substance to prepare a stock sample (in the sample, the concentration of the hydrochloride compound of formula (I) corresponds to 1 mg/mL and the concentration of antioxidant corresponds to 10 mg/mL).
# After dispensing each stock sample into 15 brown glass ampules, the ampules were sealed and stored at 60° C.
# As a control sample, 15 mL of solution of drug substance added with 15 mL of water were stored in the same condition.
# The remaining three ampules for each sample solution were used for measurement at the start of tests.
# Each prepared sample was sampled in time series. 1 mL of sample solution was precisely measured, change in appearance and solution state of the sample were observed, and then added with methanol to make the volume precisely 10 mL. For this solution, residual percentage of the hydrochloride of compound of formula (I) was calculated by HPLC method. Furthermore, the pH value of the sample solution remaining after completion of test was measured.
# [3] = Butyl hydroxy anisole, at start
# [4] = L-Cysteine HCl monohydrate 10 mg/mL, 1 day
# [5] = L-Cysteine HCl monohydrate 10 mg/mL, 7 days
# [6] = L-Cysteine HCl monohydrate 10 mg/mL, 21 days
# [7] = L-Cysteine HCl monohydrate 10 mg/mL, at start
# [8] = Sodium bisulfite 10 mg/mL, 1 day
# [9] = Sodium bisulfite 10 mg/mL, 7 days
# [10] = Sodium bisulfite 10 mg/mL, 21 days
# [11] = Sodium bisulfite 10 mg/mL, at start
# [12] = Sodium edetate 10 mg/mL, 7 days
# [13] = Sodium edetate 10 mg/mL, 21 days
# [14] = Sodium edetate 10 mg/mL, at start
# [15] = Sodium pyrosulfite 10 mg/mL, 1 day
# [16] = Sodium pyrosulfite 10 mg/mL, 7 days
# [17] = Sodium pyrosulfite 10 mg/mL, 21 days
# [18] = Sodium pyrosulfite 10 mg/mL, at start
# [19] = α-Thioglycerol 10 mg/mL, 7 days
# [20] = α-Thioglycerol 10 mg/mL, 21 days
# [21] = α-Thioglycerol 10 mg/mL, at start
structure (smiles),measurement,setting,value
"Cc1cc(OC[C@@H](O)CN2CCN(c3ccc(Cc4ccc(F)cc4)cc3)CC2)c(C)c(C)c1N [compound represented by the formula (I), (2S)-1-(4-amino-2,3,5-trimethylphenoxy)-3-{4-[4-(4-fluorobenzyl)phenyl]-1-piperazinyl}-2-propanol]",Order of likelihood of formation of insoluble aggregate with free base among various counter ions,[1],"sulfate ion>sulfite (or bisulfite ion)>>phosphate ion (or hydrogen phosphate ion, dihydrogen phosphate ion)>acetate ion>chloride ion>methane sulfonate ion"
Cc1cc(OC[C@@H](O)CN2CCN(c3ccc(Cc4ccc(F)cc4)cc3)CC2)c(C)c(C)c1N [hydrochloride of compound of formula (I)],Appearance,"[2]; Butyl hydroxy anisole (10.7 mg in 100 mL stock), at start",colorless and clear
same,Appearance,"[2]; Butyl hydroxy anisole, 1 day",colorless and clear
same,Purity,"[2]; Butyl hydroxy anisole, 1 day",96.8%
same,Residual degree,"[2]; Butyl hydroxy anisole, 1 day",99.2%
same,pH,"[2]; Butyl hydroxy anisole, 1 day",2.8
same,Appearance,"[2]; Butyl hydroxy anisole, 7 days",colorless and clear
same,Purity,"[2]; Butyl hydroxy anisole, 7 days",80.6%
same,Residual degree,"[2]; Butyl hydroxy anisole, 7 days",80.3%
same,pH,"[2]; Butyl hydroxy anisole, 7 days",2.8
same,Appearance,"[2]; Butyl hydroxy anisole, 21 days",Brown precipitates
same,Purity,"[2]; Butyl hydroxy anisole, 21 days",53.5%
same,Residual degree,"[2]; Butyl hydroxy anisole, 21 days",41.2%
same,pH,"[2]; Butyl hydroxy anisole, 21 days",2.8
same,Purity,[2]; [3],100%
same,Residual degree,[2]; [3],100%
same,pH,[2]; [3],2.8
same,Appearance,"[2]; Citric acid 10 mg/mL, 1 day",colorless and clear
same,Purity,"[2]; Citric acid 10 mg/mL, 1 day",99.2%
same,Residual degree,"[2]; Citric acid 10 mg/mL, 1 day",98.0%
same,pH,"[2]; Citric acid 10 mg/mL, 1 day",2.2
same,Appearance,"[2]; Citric acid 10 mg/mL, 7 days",colorless and clear
same,Purity,"[2]; Citric acid 10 mg/mL, 7 days",88.6%
same,Residual degree,"[2]; Citric acid 10 mg/mL, 7 days",89.8%
same,pH,"[2]; Citric acid 10 mg/mL, 7 days",2.2
same,Appearance,"[2]; Citric acid 10 mg/mL, 21 days",colorless and clear
same,Purity,"[2]; Citric acid 10 mg/mL, 21 days",63.6%
same,Residual degree,"[2]; Citric acid 10 mg/mL, 21 days",57.3%
same,pH,"[2]; Citric acid 10 mg/mL, 21 days",2.2
same,Appearance,"[2]; Citric acid 10 mg/mL, at start",colorless and clear
same,Purity,"[2]; Citric acid 10 mg/mL, at start",100%
same,Residual degree,"[2]; Citric acid 10 mg/mL, at start",100%
same,pH,"[2]; Citric acid 10 mg/mL, at start",2.1
same,Appearance,[2]; [4],colorless and clear
same,Purity,[2]; [4],100%
same,Residual degree,[2]; [4],97.9%
same,pH,[2]; [4],1.7
same,Appearance,[2]; [5],colorless and clear
same,Purity,[2]; [5],99.7%
same,Residual degree,[2]; [5],100.6%
same,pH,[2]; [5],1.7
same,Appearance,[2]; [6],colorless and clear
same,Purity,[2]; [6],99.6%
same,Residual degree,[2]; [6],94.0%
same,pH,[2]; [6],1.7
same,Appearance,[2]; [7],colorless and clear
same,Purity,[2]; [7],100%
same,Residual degree,[2]; [7],100%
same,pH,[2]; [7],1.7
same,Appearance,"[2]; No additive, 1 day",colorless and clear
same,Purity,"[2]; No additive, 1 day",98.4%
same,Residual degree,"[2]; No additive, 1 day",98.7%
same,pH,"[2]; No additive, 1 day",2.8
same,Appearance,"[2]; No additive, 7 days",colorless and clear
same,Purity,"[2]; No additive, 7 days",82.5%
same,Residual degree,"[2]; No additive, 7 days",84.4%
same,pH,"[2]; No additive, 7 days",3.0
same,Appearance,"[2]; No additive, 21 days",colorless and clear
same,Purity,"[2]; No additive, 21 days",51.2%
same,Residual degree,"[2]; No additive, 21 days",43.1%
same,pH,"[2]; No additive, 21 days",2.9
same,Appearance,"[2]; No additive, at start",colorless and clear
same,Purity,"[2]; No additive, at start",100%
same,Residual degree,"[2]; No additive, at start",100%
same,pH,"[2]; No additive, at start",2.8
same,Appearance,[2]; [8],colorless and clear
same,Purity,[2]; [8],98.5%
same,Residual degree,[2]; [8],99.9%
same,pH,[2]; [8],3.2
same,Appearance,[2]; [9],colorless and clear
same,Purity,[2]; [9],98.3%
same,Residual degree,[2]; [9],97.3%
same,pH,[2]; [9],2.8
same,Appearance,[2]; [10],colorless and clear
same,Purity,[2]; [10],98.4%
same,Residual degree,[2]; [10],91.2%
same,pH,[2]; [10],2.8
same,Appearance,[2]; [11],colorless and clear
same,Purity,[2]; [11],97.2%
same,Residual degree,[2]; [11],100%
same,pH,[2]; [11],3.5
same,Appearance,"[2]; Sodium edetate 10 mg/mL, 1 day",colorless and clear
same,Purity,"[2]; Sodium edetate 10 mg/mL, 1 day",97.9%
same,Residual degree,"[2]; Sodium edetate 10 mg/mL, 1 day",94.1%
same,pH,"[2]; Sodium edetate 10 mg/mL, 1 day",3.8
same,Appearance,[2]; [12],colorless and clear
same,Purity,[2]; [12],81.2%
same,Residual degree,[2]; [12],68.5%
same,pH,[2]; [12],4.1
same,Appearance,[2]; [13],colorless and clear
same,Purity,[2]; [13],53.8%
same,Residual degree,[2]; [13],31.9%
same,pH,[2]; [13],4.2
same,Appearance,[2]; [14],colorless and clear
same,Purity,[2]; [14],100%
same,Residual degree,[2]; [14],100%
same,pH,[2]; [14],4.0
same,Appearance,[2]; [15],colorless and clear
same,Purity,[2]; [15],98.2%
same,Residual degree,[2]; [15],102.4%
same,pH,[2]; [15],3.1
same,Appearance,[2]; [16],colorless and clear
same,Purity,[2]; [16],97.3%
same,Residual degree,[2]; [16],97.2%
same,pH,[2]; [16],2.9
same,Appearance,[2]; [17],colorless and clear
same,Purity,[2]; [17],97.6%
same,Residual degree,[2]; [17],89.8%
same,pH,[2]; [17],2.7
same,Appearance,[2]; [18],colorless and clear
same,Purity,[2]; [18],94.4%
same,Residual degree,[2]; [18],100%
same,pH,[2]; [18],3.6
same,Appearance,"[2]; α-Thioglycerol 10 mg/mL, 1 day",colorless and clear
same,Purity,"[2]; α-Thioglycerol 10 mg/mL, 1 day",100%
same,Residual degree,"[2]; α-Thioglycerol 10 mg/mL, 1 day",97.5%
same,pH,"[2]; α-Thioglycerol 10 mg/mL, 1 day",2.8
same,Appearance,[2]; [19],colorless and clear
same,Purity,[2]; [19],99.2%
same,Residual degree,[2]; [19],97.1%
same,pH,[2]; [19],2.8
same,Appearance,[2]; [20],colorless and clear
same,Purity,[2]; [20],96.8%
same,Residual degree,[2]; [20],89.0%
same,pH,[2]; [20],2.8
same,Appearance,[2]; [21],colorless and clear
same,Purity,[2]; [21],100%
same,Residual degree,[2]; [21],100%
same,pH,[2]; [21],2.7
